Activity calls are given as the source filed them. The calls are words filed in the database; no cut-off is given here.
Key:
[1] = target: T1, 3-oxo-5-alpha-steroid 4-dehydrogenase 2 (Homo sapiens) (UniProt P31213); assay: Inhibition against human Steroid 5-alpha-reductase type 2 at 10 uM concentration using 18213 3H testosterone 210 nM as substrate
T1 sequence (whole entry): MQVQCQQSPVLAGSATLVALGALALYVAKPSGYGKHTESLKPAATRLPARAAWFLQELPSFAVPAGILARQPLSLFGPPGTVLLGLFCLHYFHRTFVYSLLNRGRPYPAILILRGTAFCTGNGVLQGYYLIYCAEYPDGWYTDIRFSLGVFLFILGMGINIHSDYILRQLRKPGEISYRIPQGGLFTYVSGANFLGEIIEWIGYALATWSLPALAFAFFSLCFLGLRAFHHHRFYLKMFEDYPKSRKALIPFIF

[2] = target: T2, 3-oxo-5-alpha-steroid 4-dehydrogenase 1 (Rattus norvegicus) (UniProt P24008); assay: Inhibition against rat Steroid 5-alpha-reductase type I at 10 uM concentration using 18213 3H testosterone 210 nM as substrate
T2 sequence (whole entry): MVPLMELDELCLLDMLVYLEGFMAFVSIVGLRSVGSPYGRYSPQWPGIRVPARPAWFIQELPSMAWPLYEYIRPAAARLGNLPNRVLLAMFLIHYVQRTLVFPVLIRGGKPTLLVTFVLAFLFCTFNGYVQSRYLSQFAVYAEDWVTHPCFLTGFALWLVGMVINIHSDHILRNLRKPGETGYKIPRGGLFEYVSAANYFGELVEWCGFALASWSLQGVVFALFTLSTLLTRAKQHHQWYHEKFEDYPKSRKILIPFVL

[3] = target: T3, 3-oxo-5-alpha-steroid 4-dehydrogenase 1 (Homo sapiens) (UniProt P18405); assay: (§1) Inhibition against human Steroid 5-alpha-reductase type I in DU 145 cell culture at 10 uM concentration using 3H androstenedione 5 nM as substrate; type: cell-based
T3 sequence (whole entry): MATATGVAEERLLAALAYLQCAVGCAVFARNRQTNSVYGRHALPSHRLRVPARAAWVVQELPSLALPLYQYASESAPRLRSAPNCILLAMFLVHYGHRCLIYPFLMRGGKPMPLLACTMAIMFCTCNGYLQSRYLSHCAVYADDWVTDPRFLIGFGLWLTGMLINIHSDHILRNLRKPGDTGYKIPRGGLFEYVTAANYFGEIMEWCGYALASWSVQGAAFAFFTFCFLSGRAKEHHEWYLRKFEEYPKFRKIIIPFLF

[4] = target: T4, 3-oxo-5-alpha-steroid 4-dehydrogenase 1 (Homo sapiens, UniProt P18405); assay: Inhibitory concentration against human Steroid 5-alpha-reductase type I in DU 145 cell culture using 3H androstenedione 5 nM as substrate; type: cell-based
T4 sequence (P18405 whole entry): T3 sequence (whole entry)

[5] = target: T2, 3-oxo-5-alpha-steroid 4-dehydrogenase 1 (Rattus norvegicus); assay: Inhibition against rat Steroid 5-alpha-reductase type I at 10 uM concentration using 18213 3H testosterone 210 nM as substrate; No inhibition
[6] = target: T1, 3-oxo-5-alpha-steroid 4-dehydrogenase 2 (Homo sapiens); assay: Percentage inhibition against human Steroid 5-alpha-reductase type 2 at 10 uM concentration using 18213 3H testosterone 210 nM as substrate
[7] = target: T5, 3-oxo-5-alpha-steroid 4-dehydrogenase 1 (Rattus norvegicus, UniProt P24008); assay: Inhibitory activity against rat Steroid 5-alpha-reductase type I using 18213 3H testosterone 210 nM as substrate
T5 sequence (P24008 whole entry): T2 sequence (whole entry)

[8] = target: T6, 3-oxo-5-alpha-steroid 4-dehydrogenase 2 (Homo sapiens, UniProt P31213); assay: Inhibitory activity against human Steroid 5-alpha-reductase type 2 using 18213 3H testosterone 210 nM as substrate
T6 sequence (P31213 whole entry): T1 sequence (whole entry)

[9] = target: T3, 3-oxo-5-alpha-steroid 4-dehydrogenase 1 (Homo sapiens); assay: as §1
[10] = target: T1, 3-oxo-5-alpha-steroid 4-dehydrogenase 2 (Homo sapiens); assay: Inhibition against human 5-alpha-reductase type 2 at 10 uM concentration using 18213 3H testosterone 210 nM as substrate
[11] = target: T6, 3-oxo-5-alpha-steroid 4-dehydrogenase 2; assay: Inhibitory activity against human 5-alpha-reductase type 2 using 18213 3H testosterone 210 nM as substrate
[12] = target: T5, 3-oxo-5-alpha-steroid 4-dehydrogenase 1; assay: Inhibition against rat Steroid 5-alpha-reductase type I at 10 uM concentration using 18213 3H testosterone 210 nM as substrate: No inhibition
[13] = target: T3, 3-oxo-5-alpha-steroid 4-dehydrogenase 1 (Homo sapiens); assay: Inhibition against human 5-alpha-reductase type 1 Steroid 5-alpha-reductase type I culture at 10 uM concentration using 3H androstenedione 5 nM as substrate

SMILES | inhibition [1] | inhibition [2] | inhibition [3] | IC50 [4] | other results
CCCCn1ccc2cc(-c3ccc(C(=O)O)cc3)ccc21 | 24% | 17% | 72% | – | –
O=C(O)c1ccc(-c2ccc3c(ccn3C3CCCCC3)c2)cc1 | – | – | – | – | inhibition [5]: inactive; inhibition [6]: 36%
CCCC(CCC)n1ccc2cc(-c3ccc(C(=O)O)cc3)ccc21 | 10% | 43% | 75% | 3200 nM | –
CC(C)(C)NC(=O)[C@H]1CC[C@H]2[C@@H]3CC=C4C=C(C(=O)O)CC[C@]4(C)[C@H]3CC[C@]12C [EPRISTERIDE] | – | – | – | 1100 nM | IC50 [7]: 45 nM; IC50 [8]: 3 nM
O=C(O)c1ccc(-c2ccc3c(ccn3CC3CCCCC3)c2)cc1 | – | – | – | 2100 nM | IC50 [12]: Not Active; inhibition [13]: 81%; inhibition [6]: 50%

More lines, main results first:

inhibition [1] | inhibition [2] | inhibition [3] | IC50 [4] | SMILES | other results
40% | 26% | 81% | 2780 nM | O=C(O)c1ccc(-c2ccc3c(ccn3C(c3ccccc3)c3ccccc3)c2)cc1 | –
– | 12% | – | – | O=C(O)c1ccc(-c2ccc3c(ccn3Cc3ccccc3)c2)cc1 | inhibition [9]: 67%; inhibition [10]: 60%; IC50 [11]: 6200 nM
